The values below come from the METLIN SMRT retention time set (Domingo-Almenara et al. 2019).

This data set in a line: gradient 5% acetonitrile 3 min, to 50% in 2 min, to 85% in 15 min, held 3 min, 100 µL/min. Particulars: column: Zorbax Extend-C18 2.1 x 50 mm; eluents: water / acetonitrile, 0.1% formic acid. Summed up:
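Retention times of pure standards were taken from adduct peaks that were selected by computer and manually inspected. Over 3 months, mixtures of ~100 molecules were run by HPLC–quadrupole time-of-flight mass spectrometry in positive and negative ionization mode. The Zorbax Extend-C18 column (2.1 × 50 mm, 1.8 μm) ran at 100 μL/min in water and acetonitrile, each containing 0.1% formic acid, with 40 μL dead volume and 900 μL dwell volume.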
The molecule `Cc1ccc(CNC(=O)c2ncn3c2C(=O)N(C2CC2)C(C)(C(=O)NC2CCCC2)C3)cc1` (centres undefined) had an RP-LC retention time of 770 s.
In turn, `CC1=NS(=O)(=O)N(Cc2ccccc2)C=C1C(=O)OCc1cc(F)ccc1F` came in with an RP-LC retention time of 1080 s.
Take `Cc1ccc(-c2nc3nc4c(c(N5CCN(c6ccccn6)CC5)n3n2)CCC4)cc1`: the RP-LC retention time is 684 s.
`CC1(C)C(=O)NCCN1C(=O)C1COc2ccccc2O1` (centres undefined) showed an RP-LC retention time of 628 s.
In the case of `COc1ccc(-c2nc(C3CC(=O)N(c4ccc(OC)cc4)C3)no2)cc1` (centres undefined), the RP-LC retention time amounted to 904 s.
On to `COc1ccc(OCc2noc(CNC(=O)c3cnn(-c4ccccc4)c3C)n2)cc1`, for which the RP-LC retention time turned out to be 799 s.
In the case of `CC(C)CC(=O)N1CCC(Oc2nccnc2N(C)C)C1` (centres undefined), the RP-LC retention time worked out at 691 s.
In turn, `Cc1ccc(CNC(=O)C2(C)CN(S(=O)(=O)c3ccccc3)CC(=O)N2CCC(C)C)cc1` (centres undefined) yielded an RP-LC retention time of 1030 s.
For `Cc1ccccc1C(=O)CC1(O)C(=O)Nc2ccc(Br)cc21` (centres undefined) the value was 804 s; for `CCc1nc2cc(N3CCC(C(=O)NC(C)c4cccnc4)CC3)cnc2nc1CC` (centres undefined), 596 s.
For `CC(C)(C)CC(C)(C)n1nnnc1N` the value was 771 s.
Turning to `CCCCNC(=O)c1cn(C)nc1S(=O)(=O)N1CCC(C)CC1`, the RP-LC retention time was found to be 938 s.
For `CCOc1c(C)cc(S(=O)(=O)NCC(C)(O)COC)cc1C` (centres undefined) the value was 752 s.
Molecule `CN1C(=O)Cc2ccccc2C1C(=O)NCc1ccc(Cl)cc1` (centres undefined) gave an RP-LC retention time of 762 s.
`COc1ccc(OCC(=O)Nc2ccc3c(c2)N(C(=O)C(C)C)CCC3)cc1` showed an RP-LC retention time of 897 s.
For `CCCCN(C)C(=O)Cn1nc(C)c2sc(-c3ccccc3)nc2c1=O` the value was 865 s; for `COc1ccc(OC)c(NC(=O)Cn2cnc3c(sc4nc(-c5ccccc5)ccc43)c2=O)c1`, 1040 s.
`COc1ccc2c(c1)c(CN1CCC(N3C[C@H](OC)[C@@H]3c3cccnc3)CC1)cn2C`: the RP-LC retention time was 579 s.
As to `CCc1noc(-c2cnc3nc(C)ccc3c2Nc2ccc3c(c2)OCCO3)n1`, the RP-LC retention time was 731 s.
For `CSc1ccc(CCNC(=O)CCC(=O)N2CCCn3nc(C)cc32)cc1` the value was 703 s; for `COc1ccc(NC(=O)C2CCCN2S(=O)(=O)c2cc3c(cc2C)NC(=O)C(C)O3)cc1Cl` (centres undefined), 824 s; for `COC(=O)c1cc(OCC(=O)Nc2ccc(Cl)cc2)c2cc(OC)ccc2n1`, 899 s.
Turning to `Cc1ccc(N2C(=O)C3N=NN(c4ccc(F)cc4)C3C2=O)cc1C` (centres undefined), the RP-LC retention time amounted to 1050 s.
Molecule `CCc1ccccc1S(=O)(=O)Cc1ccc(C(=O)N2CCN(c3ccccn3)CC2)o1` yielded an RP-LC retention time of 637 s.
In the case of `Cc1cccc(CN2CCCn3nc(C(=O)NC4CC4)cc3C2=O)c1`, the RP-LC retention time was found to be 744 s.
As for `CNC(=O)Nc1ccc2nc3n(c(=O)c2c1)CCCC3`, the RP-LC retention time came to 559 s.
Next, `COc1cccc(-c2nc(-c3ccnc(N4CCOCC4)c3)no2)c1`: 944 s; `COc1ccc(CCC(=O)Nc2cnn(-c3ncc(N4CCCC4)cn3)c2)cc1`: 822 s; `CCOC(=O)COc1ccccc1C1CC(c2cccs2)=NN1C(=O)c1ccco1` (centres undefined): 941 s.
In the case of `CN1CCN(c2ccc(CNC(=O)C3CCCN(c4nccnc4Oc4ccccc4)C3)cc2)CC1` (centres undefined), the RP-LC retention time was found to be 664 s.
As to `CCOC(=O)c1c(S(=O)(=O)N2CCC(C(=O)NC3CCCC3)CC2)c(C)n(C)c1C`, the RP-LC retention time was determined as 766 s.
Molecule `CNC(=O)N1CCC(C2CCN(C(=O)CN3CCCC3=O)C2)CC1` (centres undefined) came in with an RP-LC retention time of 585 s.
`O=S(=O)(c1cc(-c2nnc(C3CC3)o2)co1)N1CCN(c2ccccc2F)CC1`: the RP-LC retention time came to 986 s.
`CCN(CC)CCCNC(=O)c1nnc(-c2ccc(S(=O)(=O)N3CCOCC3)cc2)o1` registered an RP-LC retention time of 600 s.
Molecule `COc1cccc(C(=O)Nc2c(-c3ccc(F)cc3)nc3ccccn23)c1OC` yielded an RP-LC retention time of 667 s.
`CSc1nc2cc(S(=O)(=O)N3CCCCC3)ccc2s1`: the RP-LC retention time stood at 1100 s.
For the molecule `CCN(CC)CCNC(=O)c1c(-c2ccccc2)c(-c2ccccc2)nn(C)c1=O`, the RP-LC retention time was 646 s.
Molecule `Nc1nc(SCC(=O)c2ccc(-c3ccccc3)cc2)n[nH]1` displayed an RP-LC retention time of 677 s.
Consider `O=C(NCc1cc(F)cc(F)c1)c1c(O)c2cccnc2n(-c2cccc(F)c2)c1=O`, for which the RP-LC retention time is 1200 s.
As for `COCCNC(=O)C1CCN(C(=O)c2ncn3c2COC(c2ccc(F)cc2)C3)CC1` (centres undefined), the RP-LC retention time came to 645 s.
Next, `CCCn1cc(C2=CCN(S(=O)(=O)c3ccc(OC)c(Cl)c3)CC2)c2cccnc21`: 921 s; `CC1(c2ccccc2)O[C@@H]2C[C@H]3[C@@H]4CCC5=CC(=O)C=C[C@]5(C)[C@@]4(F)[C@@H](O)C[C@]3(C)[C@]2(C(=O)CO)O1` (some centres undefined): 870 s.
For the molecule `Cc1ccc(S(=O)(=O)N2CCOCC2)cc1[N+](=O)[O-]`, the RP-LC retention time is 751 s.
For `CN1CCN(C(CNC(=O)Cc2cccc3ccccc23)c2ccsc2)CC1` (centres undefined), the RP-LC retention time was found to be 564 s.
Consider `COc1ccc(S(=O)(=O)N2CCC(C(=O)Nc3nccs3)CC2)cc1`, for which the RP-LC retention time is 720 s.
Next, `Cc1cc(N2CCC(NC(=O)Nc3ccc(Cl)cc3F)C2=O)ccc1F` (centres undefined): 923 s.
Regarding `O=C(Nc1ccc(Cl)cc1F)C1CCc2nc(N3CCOCC3)ncc2C1` (centres undefined), the RP-LC retention time came out at 856 s.
As to `CN(C)c1ccc(CNC(=O)CCCN2C(=O)CCn3nc(-c4cn(C)c5ccccc45)cc32)cc1`, the RP-LC retention time was found to be 602 s.
In turn, `COc1ccc(S(=O)(=O)NCCCn2ccnc2)cc1C(C)(C)C` returned an RP-LC retention time of 589 s.
For the molecule `Clc1ccc(Cc2noc(Cc3nc(-c4ccccc4)cs3)n2)cc1`, the RP-LC retention time came to 1170 s.
Molecule `Cc1ccccc1Nc1c(-c2cccc(Br)c2)nc2cccc(C)n12` came in with an RP-LC retention time of 833 s.
`CCCS(=O)(=O)N1CC(F)(F)C[C@H]1c1nc(-c2cccnc2)no1`: the RP-LC retention time is 802 s.
Take `O=C(NCCCn1nc(-c2ccncc2)ccc1=O)c1ccc2c(c1)OCO2`: the RP-LC retention time was determined as 555 s.
The molecule `CCN1C(=O)COc2cc(-c3noc(C(=O)NCC4CCCO4)n3)ccc21` (centres undefined) showed an RP-LC retention time of 783 s.
Turning to `CCc1ccc(S(=O)(=O)N2C[C@@H]3C(=O)N(C(CC)c4cccs4)C(=O)[C@@H]3C2)cc1` (some centres undefined), the RP-LC retention time was determined as 1070 s.
In turn, `Cc1cc(=O)n(CC(=O)NCc2ccc3c(c2)OCO3)c(N2CCCCC2)n1` came in with an RP-LC retention time of 945 s.
Take `O=C(Cc1ccccc1Cl)N1CCN(c2ccc3nncn3n2)CC1`: the RP-LC retention time was determined as 628 s.
For `C=CCN1CCN(C(=O)C2=NN(c3ccc(C)cc3)c3ncccc3S2(=O)=O)CC1`, the RP-LC retention time is 637 s.
`O=C(CSc1ccc(NC(=O)c2cccs2)nn1)Nc1nc2ccccc2s1` displayed an RP-LC retention time of 840 s.
Molecule `Cc1csc(C(=O)NCC(O)c2ccc(C(F)(F)F)cc2)c1` (centres undefined) showed an RP-LC retention time of 795 s.
The molecule `Cc1cccc(-c2noc(Cn3c(=O)n(Cc4ccccc4)c(=O)c4sccc43)n2)c1` yielded an RP-LC retention time of 1060 s.
For `Cc1ccc(N2CC(c3nc(-c4ccc5c(c4)OCO5)no3)CC2=O)cc1Cl` (centres undefined) the value was 1050 s.
`COc1ccc(CN2CC3(CCN(S(=O)(=O)c4ccc(F)cc4)CC3)C2=O)cc1` had an RP-LC retention time of 904 s.
In turn, `Cc1noc(C)c1CNC(=O)Cc1ccccc1F` yielded an RP-LC retention time of 696 s.
For `O=S(=O)(Cc1ccccc1)N1CCC(n2c(-c3ccoc3)nc3cccnc32)C1` (centres undefined), the RP-LC retention time came out at 787 s.
For `Cc1ccc(CN2CCN(CC(=O)N3CCN(Cc4ccccc4)CC3)C(=O)C2=O)cc1` the value was 640 s.
Molecule `COCCn1cc2c3c(cccc31)CN(C(=O)Nc1ccc(C)cc1C)CC2` came in with an RP-LC retention time of 970 s.
As for `COCCCNC(=O)C1CCN(c2nc3cccnc3s2)CC1`, the RP-LC retention time was found to be 623 s.
For `O=C(Cn1ncc2c(c1=O)N(C1CC1)C(=O)CS2)NCCC1=CCCCC1` the value was 754 s.
In turn, `Cn1c(NC(=O)c2ccc(Cl)cc2)cc(=O)n(C)c1=O` came in with an RP-LC retention time of 660 s.
Molecule `CCOC(=O)c1c(S(=O)(=O)N2CCC(C(=O)NCC3CCCO3)CC2)c(C)n(C)c1C` (centres undefined) came in with an RP-LC retention time of 674 s.
Next, `CCN1CCN(c2nc(F)c3c(c2F)S(=O)(=O)CCN3C2CCCCC2)CC1`: 700 s.
Molecule `O=C(c1cnccn1)N1CCC(N2C(=O)C(OCC3CC3)C23CCOCC3)CC1` (centres undefined) came in with an RP-LC retention time of 607 s.
For `COc1ccc(-n2cc(C(=O)O)c3c2C(C(F)(F)F)CC(=O)N3)c(OC)c1` (centres undefined) the value was 731 s; for `Cc1ccc(CC(=O)N2CCN(c3cc(-c4ccc(C)cc4)ncn3)CC2)cc1`, 704 s; for `CCCN1C(=O)COc2ccc(-c3noc(C4CC(=O)N(c5cccc(Cl)c5)C4)n3)cc21` (centres undefined), 1080 s.
`O=C1COc2ccccc2N1Cc1nc(-c2cccc(F)c2)no1` registered an RP-LC retention time of 990 s.
Take `CC1(C(=O)NCc2ccc(F)cc2)CCN(C(=O)Nc2ccc3c(c2)OCCO3)CC1`: the RP-LC retention time is 653 s.
For the molecule `CCOc1cc(C(=O)N2CCN(c3cc(-c4ccc(Cl)cc4)[nH]n3)CC2)cc(OCC)c1OCC`, the RP-LC retention time was found to be 997 s.
